This passage reports brain tele-methylhistamine level, light stability and thermal stability results from patent US7790731B2 (Banyu Pharmaceutical Co. Ltd., priority 2005, dated 2010).

One data set concerns male SD rats. Description: Intracerebral histamine release promotion test. As to conditions: 30 mg/kg orally, Pargyline-treated male SD rats, 2 hours after administration. The data set is classed as in vivo. As for the experimental part:
A histamine 3 receptor antagonist or inverse-agonist is reported to promote histamine release at the nerve end presynaptic region in a brain. For the purpose of investigating the effect of the medicine of the invention on these, a test compound suspended in an aqueous 0.5% methyl cellulose solution was orally administered to male SD rats (7 to 10-week age, 200 to 300 g) treated with a monoamine oxidase inhibitor (Pargyline). 2 hours after the medicine administration, the rats were killed in euthanasia, and the brain tissue was rapidly taken out. According to a Miyamoto et al's method, the concentration of histamine and its main metabolite, tele-methylhistamine in the brain tissue was measured [see Analytical Biochemistry, Vol. 334, p. 89 (2004)].

Data set [1] can be described thus: Thermal and light stability compared with the amorphous compound. It is filed as physicochemical. As to conditions: as compared with amorphous compound.

`Cc1nc2cccc(C(F)(F)F)c2c(=O)n1-c1ccc(OCCCN2CCCC2)cc1` [form I crystal, 2-methyl-3-{4-[3-(1-pyrrolidinyl)propoxy]phenyl}-5-trifluoromethyl-4(3H)-quinazolinone]: the brain tele-methylhistamine level entry with male SD rats is on record as “significantly increased”. In data set [1], the light stability result is given as “excellent” and the thermal stability result is listed as “excellent”.
